According to patent publication US10266535B2, “Inhibitor of FLT3 kinase and use thereof” (HEFEI INSTITUTES OF PHYSICAL SCIENCE, CHINESE ACADEMY OF …, priority 2015, dated 2019):
Where a name gives a salt, the structure may show the parent alone. Read-outs that look alike come from different tables or passages of the source.

How the values were obtained:
[1] = tested on: TEL-BaF3-FLT3/ITD (stably expressing FLT3/ITD mutant activated kinase); experiment: Cell proliferation, Cell Titer-Glo, TEL-BaF3-FLT3/ITD; assay type: cell-based, mouse; details: incubated for 72 hours, read-out: TEL-BaF3-FLT3/ITD IC50
Experimental: (§1) The above cell lines were constructed by our laboratory.
(§2) The number of viable cells was determined by quantification of ATP in living cells using the Cell Titer-Glo® (Promega, USA) chemiluminescence cell viability assay kit.

[2] = tested on: U937 (expressing wild-type FLT3 gene); experiment: Cell proliferation, Cell Titer-Glo, U937; assay type: cell-based, human; details: incubated for 72 hours, read-out: U937 IC50
Experimental: as §1, §2

[3] = biological target: BTK protein kinase (Homo sapiens (Human), UniProt Q06187); experiment: In vitro inhibition activity (enzymatic activity), ADP-Glo, BTK; assay type: biochemical; details: ATP 10 μM
Sequence of BTK protein kinase (Q06187 whole entry): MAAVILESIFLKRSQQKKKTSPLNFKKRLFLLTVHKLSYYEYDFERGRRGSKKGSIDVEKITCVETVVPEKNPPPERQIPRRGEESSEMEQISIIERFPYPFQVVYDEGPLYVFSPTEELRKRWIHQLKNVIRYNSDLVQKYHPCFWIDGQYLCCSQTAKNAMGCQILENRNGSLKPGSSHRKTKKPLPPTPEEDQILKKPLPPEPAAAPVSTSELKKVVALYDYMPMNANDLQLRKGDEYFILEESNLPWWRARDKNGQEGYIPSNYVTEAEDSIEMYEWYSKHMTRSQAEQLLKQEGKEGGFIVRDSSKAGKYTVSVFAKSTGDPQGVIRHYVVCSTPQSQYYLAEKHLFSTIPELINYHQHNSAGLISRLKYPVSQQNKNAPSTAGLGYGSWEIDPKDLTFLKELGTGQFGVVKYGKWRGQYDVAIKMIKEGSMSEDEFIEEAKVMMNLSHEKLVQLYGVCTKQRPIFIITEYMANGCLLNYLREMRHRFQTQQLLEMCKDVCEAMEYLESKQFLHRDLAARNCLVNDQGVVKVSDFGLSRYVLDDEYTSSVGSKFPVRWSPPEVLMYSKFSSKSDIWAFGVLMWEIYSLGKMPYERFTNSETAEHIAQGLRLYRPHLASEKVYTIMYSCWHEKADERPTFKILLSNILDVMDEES

[4] = tested on: MV4-11 (expressing FLT3/ITD mutant gene); experiment: Cell proliferation, Cell Titer-Glo, MV4-11; assay type: cell-based; details: Homo sapiens, MV4-11; incubated for 72 hours; read-out: MV4-11 IC50
Experimental: as §1, §2

[5] = tested on: MOLM-13 (expressing FLT3/ITD mutant gene and wild-type FLT3 gene); experiment: Cell proliferation, Cell Titer-Glo, MOLM-13; assay type: cell-based; details: Homo sapiens, MOLM-13; incubated for 72 hours; read-out: MOLM-13 IC50
Experimental: as §1, §2

[6] = tested on: pro-B cell BaF3; experiment: Cell proliferation, Cell Titer-Glo, BaF3; assay type: cell-based; details: Mus musculus, incubated for 72 hours
Experimental: as §1, §2

[7] = tested on: TEL-BaF3-BMX (stably expressing BMX kinase); experiment: Cell proliferation, Cell Titer-Glo, TEL-BaF3-BMX; assay type: cell-based; details: Mus musculus; incubated for 72 hours
Experimental: as §1, §2

[8] = tested on: TEL-cKIT-BaF3 (stably expressing cKIT kinase); experiment: Cell proliferation, Cell Titer-Glo, TEL-cKIT-BaF3; assay type: cell-based; details: Mus musculus; incubated for 72 hours
Experimental: as §1, §2

[9] = tested on: TEL-BaF3-BLK (stably expressing BLK kinase); experiment: Cell proliferation, Cell Titer-Glo, TEL-BaF3-BLK; assay type: cell-based; details: Mus musculus; incubated for 72 hours
Experimental: as §1, §2

[10] = tested on: TEL-JAK1-BaF3 (stably expressing JAK1 kinase); experiment: Cell proliferation, Cell Titer-Glo, TEL-JAK1-BaF3; assay type: cell-based; details: Mus musculus; incubated for 72 hours
Experimental: as §1, §2

[11] = tested on: OCI-AML-3 (expressing FLT3 A680V mutant gene); experiment: Cell proliferation, Cell Titer-Glo, OCI-AML3; assay type: cell-based; details: Homo sapiens, incubated for 72 hours
Experimental: as §1, §2

[12] = tested on: MOLM-14 (expressing FLT3/ITD mutant gene and wild-type FLT3 gene); experiment: Cell proliferation, Cell Titer-Glo, MOLM-14; assay type: cell-based; details: Homo sapiens, MOLM-14; incubated for 72 hours; read-out: MOLM-14 IC50
Experimental: as §1, §2

[13] = tested on: TPR-MET-BaF3 (stably expressing MET kinase); experiment: Cell proliferation, Cell Titer-Glo, TPR-MET-BaF3; assay type: cell-based; details: Mus musculus; incubated for 72 hours
Experimental: as §1, §2

[14] = tested on: TEL-BaF3-FLT3-D835Y (stably expressing FLT3 D835Y mutant activated kinase); experiment: Cell proliferation, Cell Titer-Glo, TEL-BaF3-FLT3-D835Y; assay type: cell-based; details: Mus musculus; incubated for 72 hours; read-out: TEL-BaF3-FLT3-D835Y IC50
Experimental: as §1, §2

Row | IC50 ([1]; Mus musculus, 72 h) [nM] | IC50 ([2]; Homo sapiens, U-937, 72 h) [nM] | IC50 [4] [nM] | IC50 [5] [nM] | IC50 [6] [nM] | IC50 [9] [nM] | IC50 [11] [nM] | Structure (SMILES) | further results
1 | 41 | – | 120 | 1900 | 2150 | 83 | – | CC(C)C[C@@H](N)C(=O)N1CC[C@@H](n2nc(-c3ccc(Oc4ccccc4)cc3)c3c(N)ncnc32)C1 [Compound 28, (R)-2-amino-1-((R)-3-(4-amino-(4-phenoxyphenyl)-1H-pyrazolo[3,4-d]pyrimidin-1-yl)pyrrolidin-1-yl)-4-methylpentan-1-one] | IC50 [7]: 390 nM; IC50 [8]: 5300 nM; IC50 [10]: 910 nM
2 | 160 | 4450 | 760 | – | – | – | 6610 | CCCS(=O)(=O)N1CCC[C@@H](n2nc(-c3ccc(Oc4ccccc4)cc3)c3c(N)ncnc32)C1 [Compound 40, (R)-3-(4-phenoxyphenyl)-1-(1-(propylsulfonyl)piperidin-3-yl)-1H-pyrazolo[3,4-d]pyrimidin-4-amine] | –
3 | 140 | 5840 | 570 | – | – | – | 4850 | CCS(=O)(=O)N1CCC[C@@H](n2nc(-c3ccc(Oc4ccccc4)cc3)c3c(N)ncnc32)C1 [Compound 41, (R)-3-(4-phenoxyphenyl)-1-(1-(ethylsulfonyl)piperidin-3-yl)-1H-pyrazolo[3,4-d]pyrimidin-4-amine] | –
4 | 390 | > 10000 | 1900 | – | – | – | > 10000 | Nc1ncnc2c1c(-c1ccc(Oc3ccccc3)cc1)nn2[C@@H]1CCCN(C(=O)C(Cl)(Cl)Cl)C1 [Compound 42] | –
5 | 390 | 5680 | 750 | – | – | – | 8610 | NCCC(=O)N1CCC[C@@H](n2nc(-c3ccc(Oc4ccccc4)cc3)c3c(N)ncnc32)C1 [Compound 46] | –
6 | 460 | > 10000 | 2400 | – | – | – | > 10000 | CC(C)(C)CC(=O)N1CCC[C@@H](n2nc(-c3ccc(Oc4ccccc4)cc3)c3c(N)ncnc32)C1 [Compound 49] | –
7 | 260 | > 10000 | 2400 | – | – | – | > 10000 | CCC(C)(C)C(=O)N1CCC[C@@H](n2nc(-c3ccc(Oc4ccccc4)cc3)c3c(N)ncnc32)C1 [Compound 50] | –
8 | 150 | > 10000 | 610 | – | – | – | > 10000 | Nc1ncnc2c1c(-c1ccc(Oc3ccccc3)cc1)nn2[C@@H]1CCCN(C(=O)CC(F)(F)F)C1 [Compound 51] | –
9 | 82 | > 10000 | 410 | – | – | – | 7890 | Nc1ncnc2c1c(-c1ccc(Oc3ccccc3)cc1)nn2[C@@H]1CCCN(C(=O)CC2CC2)C1 [Compound 52] | –
10 | 770 | > 10000 | 3400 | – | – | – | > 10000 | CC(C)CC(=O)N1CCC[C@@H](n2nc(-c3ccc(Oc4ccccc4)cc3)c3c(N)ncnc32)C1 [Compound 53] | –
11 | 450 | > 10000 | 1200 | – | – | – | > 10000 | CCCC(=O)N1CCC[C@@H](n2nc(-c3ccc(Oc4ccccc4)cc3)c3c(N)ncnc32)C1 [Compound 54] | –
12 | 1800 | > 10000 | > 10000 | – | – | – | > 10000 | CC(C)(C)C(=O)N1CCC[C@@H](n2nc(-c3ccc(Oc4ccccc4)cc3)c3c(N)ncnc32)C1 [Compound 55] | –
13 | 120 | – | 60 | 760 | 8430 | 540 | – | NC(=O)CC[C@@H](N)C(=O)N1CCC[C@@H](n2nc(-c3ccc(Oc4ccccc4)cc3)c3c(N)ncnc32)C1 [Compound 57] | IC50 [7]: 2300 nM; IC50 [8]: 3400 nM; IC50 [10]: 4710 nM
14 | 300 | – | 520 | 1360 | 4370 | – | – | COC(=O)N1CCC(C(=O)N2CCC[C@@H](n3nc(-c4ccc(Oc5ccccc5)cc4)c4c(N)ncnc43)C2)CC1 [Compound 60, (R)-methyl 4-(3-(4-amino-(4-phenoxyphenyl)-1H-pyrazolo[3,4-d]pyrimidin-1-yl)piperidine-1-carbonyl)piperidin-1-carboxylate] | IC50 [10]: 770 nM
15 | 80 | – | 175 | 480 | 7590 | 9.8 | – | NCC(=O)N1CC[C@@H](n2nc(-c3ccc(Oc4ccccc4)cc3)c3c(N)ncnc32)C1 [Compound 64] | IC50 [7]: 90 nM; IC50 [8]: 2500 nM; IC50 [10]: 1300 nM
16 | 41 | – | 83 | 230 | 8420 | 360 | – | CN(C)CC(=O)N1CC[C@@H](n2nc(-c3ccc(Oc4ccccc4)cc3)c3c(N)ncnc32)C1 [Compound 65] | IC50 [7]: 1200 nM; IC50 [8]: 3500 nM; IC50 [10]: 890 nM
17 | < 0.3 | – | < 0.3 | – | 1900 | – | – | CN[C@H](CC(C)C)C(=O)NC1CCC(n2nc(-c3ccc(Oc4ccccc4)cc3)c3c(N)ncnc32)CC1 (stereo partly drawn) [Compound 92, (R)-N-(4-(4-amino-(4-phenoxyphenyl)-1H-pyrazolo[3,4-d]pyrimidin-1-yl)cyclohexyl)-4-methyl-2-(methylamino)pentanamide hydrochloride] | IC50 [12]: < 0.3 nM; IC50 [14]: < 0.3 nM

Row | Structure (SMILES) | IC50 ([1]; Mus musculus, 72 h) [nM] | IC50 ([2]; Homo sapiens, U-937, 72 h) [nM] | IC50 [4] [nM] | IC50 [5] [nM] | IC50 [6] [nM] | IC50 [9] [nM] | IC50 [11] [nM] | further results
18 | Nc1ncnc2c1c(-c1ccc(Oc3ccccc3)cc1)nn2[C@@H]1CCCN(C(=O)[C@@H](N)Cc2c[nH]cn2)C1 [Compound 6, (S)-2-amino-1-((R)-3-(4-amino-(4-phenoxyphenyl)-1H-pyrazolo[3,4-d]pyrimidin-1-yl)piperidin-1-yl)-3-(1H-imidazol-4-yl)propan-1-one] | 1100 | > 10000 | – | – | – | – | – | IC50 [3]: 128 nM
19 | Nc1ncnc2c1c(-c1ccc(Oc3ccccc3)cc1)nn2[C@@H]1CCCN(C(=O)[C@@H](N)Cc2c[nH]c3ccccc23)C1 [Compound 9, (S)-2-amino-1-((R)-3-(4-amino-(4-phenoxyphenyl)-1H-pyrazolo[3,4-d]pyrimidin-1-yl)piperidin-1-yl)-3-(1H-indol-3-yl)propan-1-one] | – | > 10000 | – | – | – | – | – | IC50 [3]: 49 nM
20 | CC(O)[C@@H](N)C(=O)N1CCC[C@@H](n2nc(-c3ccc(Oc4ccccc4)cc3)c3c(N)ncnc32)C1 (stereo partly drawn) [Compound 44, (R)-2-amino-1-((R)-3-(4-amino-(4-phenoxyphenyl)-1H-pyrazolo[3,4-d]pyrimidin-1-yl)piperidin-1-yl)-3-hydroxybutanone] | 22 | > 10000 | 64 | 72 | 3900 | 1000 | 3760 | IC50 [12]: 59 nM; IC50 [7]: 119 nM; IC50 [13]: 2760 nM; IC50 [3]: 53 nM
21 | C[C@@H](N)C(=O)N1CCC[C@@H](n2nc(-c3ccc(Oc4ccccc4)cc3)c3c(N)ncnc32)C1 [Compound 47] | – | – | 54 | 34 | 3800 | 680 | 2700 | IC50 [12]: 48 nM; IC50 [1]: 22 nM; IC50 [2]: > 10000 nM; IC50 [7]: 56 nM; IC50 [13]: 2460 nM; IC50 [3]: 27 nM
22 | Nc1ncnc2c1c(-c1ccc(Oc3ccccc3)cc1)nn2[C@@H]1CCCN(C(=O)[C@H](N)CO)C1 [Compound 48] | 46 | > 10000 | 61 | 52 | 6500 | 1100 | 4360 | IC50 [12]: 79 nM; IC50 [13]: 3520 nM; IC50 [3]: 28 nM
